Reference: patent US7727558B2, “Polymeric delivery agents and delivery agent compounds” (Emisphere Technologies, Inc., priority 1999, dated 2010)
Values joined by “and” are separate entries in the source; they are usually repeats but may differ in a detail not shown here. Equal values may be shown once.

Experiment: Oral administration of rhGH with delivery agent or conjugate in rats, serum rhGH by immunoassay
Format: in vivo, Sprague-Dawley rats
Conditions: individual rat, 200 mg/kg conjugate = 20 mg/kg delivery agent
Experimental: Oral gavage (PO) and/or intracolonic (IC) dosing solutions of delivery agent compound and rhGH in water, phosphate buffer (PB) or 5% aqueous ethanol were prepared. Typically, a solution of the conjugate was prepared by mixing in water and stirred. The final dosing solutions were prepared by mixing the conjugate solution with an rhGH stock solution (typically 15 mg rhGH/ml) and diluting to the desired volume (usually 3.0 ml). The compounds and rhGH dose amounts are listed below in Table 1.
Male Sprague-Dawley rats weighing between 200-250 g were fasted for 24 hours and administered ketamine (44 mg/kg) and chlorpromazine (1.5 mg/kg) 15 minutes prior to dosing. A dosing group of five rats was administered one of the dosing solutions. For oral gavage (PO), an […] Rusch 8 French catheter was adapted to a 1 ml syringe with a pipette tip. The syringe was filled with dosing solution by drawing the solution through the catheter, which was then wiped dry. The catheter was placed down the esophagus leaving 1 cm of tubing past the rat's incisors. Solution was administered by pressing the syringe plunger. For intracolonic (IC) dosing, a 7.5 cm Rusch catheter tube (French 8 or 6) was adapted to a syringe with an Eppendorf pipette tip. The syringe was filled with the 0.5 ml dosing solution by drawing the solution through the catheter tube. The catheter tube was wiped dry. K-Y jelly was applied to the tip, avoiding contact with the eye of the tube, and the tube was inserted into the colon through the anus until the tube was no longer visible. The solution was injected by pressing the syringe plunger, and the tube was removed.
Blood samples were collected serially from the tail artery, typically at time=0, 15, 30, 45, 60 and 90 minutes for oral and 0, 10, 20, 30, 60 and 90 for IC dosing. Serum rHGH concentrations were quantified by an rHGH immunoassay test kit (Kit # K1F4015 from Genzyme Corporation Inc., Cambridge, Mass.). Previous studies indicated baseline values of about zero.
The experiments were performed at 1/10 the delivery agent concentration versus that of the conjugate. Thus, at a dose of 200 mg/kg conjugate, the actual amount of delivery agent dosed was 20 mg/kg.

- Serum rhGH concentration, Min45 (45 min, listed as (a)): 35.53 and 0 (4×) and 4.29 and 18.35
- Serum rhGH concentration, Min90 (90 min, listed as (a)): 2.715 and 0 (5×) and 1.47
- Serum rhGH concentration, Base line (baseline (time 0)): 0
SMILES: O=C(O)CCCCCCCNC(=O)c1ccccc1O [delivery agent I]
- Serum rhGH concentration, Min15 (15 min, listed as (a)): 45.34 and 0 and 64.2 and 43.14 and 84.73 and 79.98 and 48.72
- Serum rhGH concentration, Min30 (30 min, listed as (a)): 46.52 and 58.44 and 18.99 and 23.44 and 13.19 and 22.69 and 1.82
- Serum rhGH concentration, Min60 (60 min, listed as (a)): 34.885 and 3.922 and 10.13 and 15.93 and 10.565 and 5.49 and 7.905
